Measurements from PubChem BioAssay (NCI).
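Cultured in 96-well plates, cells were exposed to test compound for 48 hours across five concentrations. Abbreviation: GI50, concentration required for 50% inhibition of growth. TGI is the concentration that stops growth completely.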

Test system: MDA-MB-468 breast
Experiment: growth of human tumour cells (NCI), 48 h

Compound	GI50 [µM]	TGI [µM]
CN(C)CCNc1nc2ccccc2c2c(=O)c3cc(F)ccc3sc12	1.65	3.22
Cc1cc(NCCCCNc2ccnc3cc(Cl)ccc23)nc(Nc2ccc(C(=O)N3CCCCC3)cc2)n1	1.37	3.09
O=C1/C(=C/N2N=C(c3ccc4ccccc4c3)CC2c2ccccc2O)SC(=S)N1c1cccnc1 (configuration not stated)	1.06	5.33
O=C(N/N=C/c1ccc(O)cc1O)c1cccnc1	2.23	11.8
COc1ccc(-c2ccc(NNC(=O)c3ccc(F)cc3)nn2)cc1OC	64.3	> 100
Cn1cc(S(=O)(=O)N2CCC3=Cc4c(cnn4-c4ccc(F)cc4)C[C@]3(C(=O)c3cc(C(F)(F)F)ccn3)C2)cn1	68.8	> 100
c1ccc2c(c1)c1ccccc1c1ccccc21	> 100	> 100
O=C(N[C@@H](Cc1coc2ccccc12)B(O)O)[C@@H]1C[C@H]2CC[C@@H]1O2	3.38	36
Cn1cc(-c2csc(-c3cn(C)c4ccc(F)cc34)n2)c2cnccc21	1.86	3.53
C=C(C)[C@@H]1CC[C@]2(C)[C@H](CC[C@@H]3[C@@H]([C@@](C)(O)CCC=C(C)C)CC[C@]32C)[C@@]1(C)CCC(=O)O	22.4	60.4
NCCCOc1cc(Cl)ccc1NC(=O)c1cc2ccccc2cc1OCCCN	0.543	1.89
CCOC(=O)C1=C(N)Oc2c(sc3c(C)cccc23)C1c1ccc(F)cc1 (configuration not stated)	1.16	8.8
Nc1c(C(=O)Nc2ccccc2Cl)sc2nc3c(cc12)C(=O)CCC3	0.324	5.42
Oc1ccc(N=Nc2nccs2)c(O)c1	4.76	> 100
O=C(NC1CCCCC1)c1ccc(Nc2ncnc3c2cnn3-c2ccccc2)cc1	21.7	> 100
Cc1noc2c1-c1ccccc1C(c1ccc(Cl)cc1)=N[C@H]2CC(N)=O	1.5	> 64.5
CNC(C)[C@H]1CCC2C3CC=C4C(=O)[C@@H](NC(=O)C=C(C)C)CC[C@]4(C)C3CC[C@@]21C (some centres not stated)	0.939	2.91
CNCCn1c(=O)c2cc(OC)c(OC)cc2c2cnc3cc4c(cc3c21)OCO4	< 0.01	< 0.0177

Compound	GI50 [µM]	TGI [µM]
COc1ccc(-c2noc(N)c2-c2cc(OC)c3c(c2)OCO3)cc1	0.966	7.47
COc1ccc(-c2nn(-c3cccc(Cl)c3)cc2-c2nc(N)[nH]c(=O)c2C#N)cc1	2.12	6.43
O=C(Nc1ccc(Cl)cc1)Nc1nccs1	0.398	3.7
COc1ccc(-c2cc(Nc3ccnc(N4CCOCC4)n3)on2)cc1	0.375	2.49
NC(N)=N/N=C(\N=Nc1ccccc1)c1ccc(Cl)cc1	2.12	5.41
CC1(C)N=C(N)N=C(N)N1c1cccc(OCCOc2cccc([N+](=O)[O-])c2)c1	0.463	21.6
NC(=O)CNc1ccc([As]=[As]c2ccc(NCC(N)=O)cc2)cc1 (configuration not stated)	1.13	4.09
COc1cc(/C=C2\CCC/C(=C\c3ccc(OCC4CO4)c(OC)c3)C2=O)ccc1OCC1CO1 (configuration not stated)	1.63	4.85
NCCCOc1cc2ccccc2cc1C(=O)NCCCOc1cc2ccccc2cc1C(=O)Nc1ccc(Cl)cc1O	0.238	0.821
Oc1ccc(Oc2cnc3ccccc3n2)cc1	49.4	> 100
O=C1c2ccccc2C(=O)c2c(NCCN=Cc3ccccc3O)cccc21	1.69	4.42
Cc1sc2c(c1C)C(c1ccc(Cl)cc1)=N[C@@H](CC(=O)Nc1ccc(OCCOCCOCCOCCNc3cccc4c3C(=O)N(C3CCC(=O)NC3=O)C4=O)cc1)c1nnc(C)n1-2 (some centres not stated)	< 0.0201	> 100
COC(=O)[C@]12CC[C@@H](C)[C@H](C)[C@@H]1C1=CC[C@@H]3[C@@]4(C)C(C=O)=C[C@@](C)(COC(=O)c5ccco5)[C@@H]4[C@H](O)C[C@@]3(C)[C@]1(C)CC2	1.69	5.66
C=CCn1c(SCC(=O)Nc2ccc(C(=O)/C=C/c3cc(OC)c(OC)c(OC)c3)cc2)nnc1-c1ccc(OC)cc1	0.654	2.57
COc1cc(OC)c2sc(-c3ccc(-n4cncc4-c4cc(OC)c(OC)c(OC)c4)cc3)nc2c1	3.27	> 100
COc1ccc2c(c1)C(C)Cc1c(ncnc1-n1cnc3ccccc31)N2C (configuration not stated)	0.293	10.6
O=C(NNc1cnccn1)c1nc2cc(F)ccc2n2cccc12	0.419	3.03
O=C(CCN1CCOCC1)Nc1cccc(-n2cc(-c3ccncc3)c(-c3ccc(Cl)c(O)c3)n2)c1	1.25	3.95
